Source: patent publication US8247377B2, “Non-steroidal glucocorticoid inhibitors and their use in treating inflammation, allergy and auto-immune conditions” (Glaxo Group Limited, priority 2006, dated 2012)

molecular target: T1, progesterone receptor (Homo sapiens, UniProt P06401); test: Assay for progesterone receptor activity (CV-1 cells, PRb-BacMam/MMTV-BacMam); type: cell-based; conditions: CV-1 cells transduced with PRb-BacMam and MMTV-BacMam; read-out: pEC50 progesterone receptor activity (converted)
T1 construct: expressed in transfected cells; host or cells: CV-1 cells transduced with PRb-BacMam and MMTV-BacMam
T1 sequence (P06401 1-933): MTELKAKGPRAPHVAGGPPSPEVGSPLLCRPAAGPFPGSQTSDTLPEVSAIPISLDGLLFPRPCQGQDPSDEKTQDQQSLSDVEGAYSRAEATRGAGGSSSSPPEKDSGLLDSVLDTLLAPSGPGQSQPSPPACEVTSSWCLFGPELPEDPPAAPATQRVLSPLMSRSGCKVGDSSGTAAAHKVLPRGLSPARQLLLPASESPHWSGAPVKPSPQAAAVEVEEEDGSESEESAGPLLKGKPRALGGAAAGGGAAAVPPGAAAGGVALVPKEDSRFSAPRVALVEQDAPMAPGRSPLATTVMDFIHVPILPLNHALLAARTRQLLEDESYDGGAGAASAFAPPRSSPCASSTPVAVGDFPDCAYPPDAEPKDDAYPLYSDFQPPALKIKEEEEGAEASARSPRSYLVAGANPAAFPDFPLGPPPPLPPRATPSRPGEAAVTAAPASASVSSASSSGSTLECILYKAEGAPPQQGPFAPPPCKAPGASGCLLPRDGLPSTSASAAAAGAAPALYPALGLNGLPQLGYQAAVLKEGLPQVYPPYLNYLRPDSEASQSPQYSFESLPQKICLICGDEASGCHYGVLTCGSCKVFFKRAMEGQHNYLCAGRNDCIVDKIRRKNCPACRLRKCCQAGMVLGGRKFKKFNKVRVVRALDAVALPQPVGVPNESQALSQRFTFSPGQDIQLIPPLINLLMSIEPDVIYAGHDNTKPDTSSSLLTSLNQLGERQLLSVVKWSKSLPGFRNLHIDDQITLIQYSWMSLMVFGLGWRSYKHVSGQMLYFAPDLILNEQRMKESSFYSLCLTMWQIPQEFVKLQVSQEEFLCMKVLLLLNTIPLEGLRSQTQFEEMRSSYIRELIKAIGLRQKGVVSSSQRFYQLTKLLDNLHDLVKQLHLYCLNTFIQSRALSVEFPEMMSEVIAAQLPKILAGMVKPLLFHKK
Method in brief: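 CV-1 cells co-transduced with PRb-BacMam and MMTV-BacMam (10% each), seeded onto compounds in DMEM with 10% serum. After 24 h, luminescence was read with Steadylite. pEC50 values were estimated from dose-response curves.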

Q: How did the EC50 turn out when `Nc1c(C(=O)NCC(O)(CNC(=O)c2c(Cl)cccc2Br)C(F)(F)F)cnn1-c1ccc(F)cc1` (single isomer, unassigned) [Example 12 Enantiomer 1, 5-Amino-N-[2-({[(2-bromo-6-chlorophenyl)carbonyl]amino}methyl)-3,3,3-trifluoro-2-hydroxypropyl]-1-(4-fluorophenyl)-1H-pyrazole-4-carboxamide] was run?
A: The EC50 was over 1 µM.

Q: How did the EC50 turn out when `CCN(CC(O)(CNC(=O)c1cnn(-c2ccc(F)cc2F)c1N)C(F)(F)F)C(=O)c1c(F)cccc1F` (racemic) [Example 34 (racemic), 5-amino-1-(2,4-difluorophenyl)-N-(2-{[[(2,6-difluorophenyl)carbonyl](ethyl)amino]methyl}-3,3,3-trifluoro-2-hydroxypropyl)-1H-pyrazole-4-carboxamide] was run?
A: Its EC50 is over 1 µM.

Q: `Nc1c(C(=O)NCC(O)(CNC(=O)c2c(Cl)cccc2Cl)C(F)(F)F)cnn1-c1ccc(F)cc1` (racemic) [Example 3 (racemic), 5-Amino-N-[2-({[(2,6-dichlorophenyl)carbonyl]amino}methyl)-3,3,3-trifluoro-2-hydroxypropyl]-1-(4-fluorophenyl)-1H-pyrazole-4-carboxamide] was tested. Which EC50 did it give?
A: Its EC50 is over 1 µM.

Q: For `CN(CC(O)(CNC(=O)c1cnn(-c2ccc(F)cc2)c1N)C(F)(F)F)C(=O)c1c(F)cccc1C(F)(F)F` (racemic) [Example 21 (racemic), 5-amino-1-(4-fluorophenyl)-N-(3,3,3-trifluoro-2-{[{[2-fluoro-6-(trifluoromethyl)phenyl]carbonyl}(methyl)amino]methyl}-2-hydroxypropyl)-1H-pyrazole-4-carboxamide], which EC50 is on record?
A: Its EC50 is over 1 µM.

Q: How did the EC50 turn out when `Nc1c(C(=O)NCC(O)(CN(CCF)C(=O)c2c(F)cccc2C(F)(F)F)C(F)(F)F)cnn1-c1ccc(F)cc1` (racemic) [Example 18 (racemic), 5-amino-1-(4-fluorophenyl)-N-{3,3,3-trifluoro-2-[((2-fluoroethyl){[2-fluoro-6-(trifluoromethyl)phenyl]carbonyl}amino)methyl]-2-hydroxypropyl}-1H-pyrazole-4-carboxamide] was run?
A: Its EC50 is over 1 µM.

Q: With `CCN(CC(O)(CNC(=O)c1cnn(-c2ccc(F)cc2)c1N)C(F)(F)F)C(=O)c1c(Cl)cccc1Br` (racemic) [Example 24 (racemic), 5-amino-N-(2-{[[(2-bromo-6-chlorophenyl)carbonyl](ethyl)amino]methyl}-3,3,3-trifluoro-2-hydroxypropyl)-1-(4-fluorophenyl)-1H-pyrazole-4-carboxamide] as the compound, how does the EC50 read?
A: Its EC50 is over 1 µM.

Q: For `Nc1c(C(=O)NCC(O)(CN(CCF)C(=O)c2c(F)cccc2F)C(F)(F)F)cnn1-c1ccc(F)cc1` (racemic) [Example 17 (racemic), 5-amino-N-(2-{[[(2,6-difluorophenyl)carbonyl](2-fluoroethyl)amino]methyl}-3,3,3-trifluoro-2-hydroxypropyl)-1-(4-fluorophenyl)-1H-pyrazole-4-carboxamide], which EC50 is on record?
A: The EC50 was over 1 µM.

Q: With `CCN(CC(O)(CNC(=O)c1cnn(-c2ccc(F)c(F)c2)c1N)C(F)(F)F)C(=O)c1c(F)cccc1F` (racemic) [Example 33 (racemic), 5-amino-1-(3,4-difluorophenyl)-N-(2-{[[(2,6-difluorophenyl)carbonyl](ethyl)amino]methyl}-3,3,3-trifluoro-2-hydroxypropyl)-1H-pyrazole-4-carboxamide] as the compound, how does the EC50 read?
A: Its EC50 is over 1 µM.

Q: With `CN(CC(O)(CNC(=O)c1cnn(-c2ccc(F)cc2)c1N)C(F)(F)F)C(=O)c1c(Cl)cccc1Cl` (racemic) [Example 1 (racemic), 5-Amino-N-(2-{[[(2,6-dichlorophenyl)carbonyl](methyl)amino]methyl}-3,3,3-trifluoro-2-hydroxypropyl)-1-(4-fluorophenyl)-1H-pyrazole-4-carboxamide] as the compound, how does the EC50 read?
A: Its EC50 is over 1 µM.

Q: With `CCN(CC(O)(CNC(=O)c1cnn(-c2cc(F)ccc2F)c1N)C(F)(F)F)C(=O)c1c(F)cccc1F` (racemic) [Example 36 (racemic), 5-amino-1-(2,5-difluorophenyl)-N-(2-{[[(2,6-difluorophenyl)carbonyl](ethyl)amino]methyl}-3,3,3-trifluoro-2-hydroxypropyl)-1H-pyrazole-4-carboxamide] as the compound, how does the EC50 read?
A: The EC50 was over 1 µM.

Q: Which EC50 does the source give for `CN(CC(O)(CNC(=O)c1cnn(-c2ccc(F)cc2)c1N)C(F)(F)F)C(=O)c1c(C(F)(F)F)cccc1C(F)(F)F` (racemic) [Example 22 (racemic), 5-amino-N-(2-{[{[2,6-bis(trifluoromethyl)phenyl]carbonyl}(methyl)amino]methyl}-3,3,3-trifluoro-2-hydroxypropyl)-1-(4-fluorophenyl)-1H-pyrazole-4-carboxamide] here?
A: The EC50 was over 1 µM.
